Measurements reported in US12391679B2, “Benzamide-substituted bicyclic imidazo- and pyrazolo-fused -pyridine, -pyrimide, and -pyridazine compounds for treatment of inflammatory diseases” (ONCO3R Therapeutics BV, priority 2019, dated 2025).
pIC50: −log10 of the molar value.

Key:
Format in all cases: biochemical
SIK3 = target: T1, SIK3 (Homo sapiens, UniProt Q9Y2K2); test: ADP-Glo kinase assay, SIK3
T1 construct: purchased SignalChem S12-11G-100
How it was run: (§1)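 Luminescent ADP-Glo readout of ADP formed. Enzyme-substrate mix with ATP, reaction 120 min at RT, then 40 min ATP depletion and 30 min detection. Controls were 1% DMSO (negative) and 10 μM staurosporine (positive), both final.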

SIK1 = target: T2, SIK1 (Homo sapiens, UniProt P57059); test: ADP-Glo kinase assay, SIK1
T2 construct: purchased Carna Biosciences 02-131
How it was run: as §1

SIK2 = target: T3, SIK2 (Homo sapiens, UniProt Q9H0K1); test: ADP-Glo kinase assay, SIK2
T3 construct: purchased ThermoFisher Scientific PV4792
How it was run: as §1

T2 sequence (P57059 whole entry): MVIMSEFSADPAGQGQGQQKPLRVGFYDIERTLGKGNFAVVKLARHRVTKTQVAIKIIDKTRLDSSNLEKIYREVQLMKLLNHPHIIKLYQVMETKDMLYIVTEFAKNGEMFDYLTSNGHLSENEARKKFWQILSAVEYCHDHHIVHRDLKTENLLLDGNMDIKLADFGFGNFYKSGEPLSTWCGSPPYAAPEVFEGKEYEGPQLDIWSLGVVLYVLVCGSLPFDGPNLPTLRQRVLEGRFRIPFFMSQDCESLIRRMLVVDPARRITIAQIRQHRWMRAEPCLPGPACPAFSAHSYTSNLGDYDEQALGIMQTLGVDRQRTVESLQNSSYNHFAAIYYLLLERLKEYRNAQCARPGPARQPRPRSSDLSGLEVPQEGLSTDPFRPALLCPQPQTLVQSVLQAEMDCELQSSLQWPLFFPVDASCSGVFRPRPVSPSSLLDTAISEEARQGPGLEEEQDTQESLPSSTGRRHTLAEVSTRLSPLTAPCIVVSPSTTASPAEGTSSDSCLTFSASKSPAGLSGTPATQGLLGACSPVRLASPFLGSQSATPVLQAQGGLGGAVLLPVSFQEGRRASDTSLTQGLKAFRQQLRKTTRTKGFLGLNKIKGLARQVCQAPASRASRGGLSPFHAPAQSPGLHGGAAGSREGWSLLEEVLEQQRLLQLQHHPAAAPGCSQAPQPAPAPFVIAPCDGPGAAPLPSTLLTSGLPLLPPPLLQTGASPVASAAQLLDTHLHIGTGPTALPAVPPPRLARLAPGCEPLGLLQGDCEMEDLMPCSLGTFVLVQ
T1 sequence (Q9Y2K2 59-365 limits assumed): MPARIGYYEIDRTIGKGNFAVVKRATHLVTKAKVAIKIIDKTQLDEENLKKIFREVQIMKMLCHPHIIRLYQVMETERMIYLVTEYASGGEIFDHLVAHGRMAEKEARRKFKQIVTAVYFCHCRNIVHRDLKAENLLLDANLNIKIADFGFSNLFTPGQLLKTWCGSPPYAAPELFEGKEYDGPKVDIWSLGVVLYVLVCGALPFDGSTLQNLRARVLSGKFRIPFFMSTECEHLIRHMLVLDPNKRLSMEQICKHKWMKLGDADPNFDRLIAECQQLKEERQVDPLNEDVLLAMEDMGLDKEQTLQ
T3 sequence (Q9H0K1 whole entry): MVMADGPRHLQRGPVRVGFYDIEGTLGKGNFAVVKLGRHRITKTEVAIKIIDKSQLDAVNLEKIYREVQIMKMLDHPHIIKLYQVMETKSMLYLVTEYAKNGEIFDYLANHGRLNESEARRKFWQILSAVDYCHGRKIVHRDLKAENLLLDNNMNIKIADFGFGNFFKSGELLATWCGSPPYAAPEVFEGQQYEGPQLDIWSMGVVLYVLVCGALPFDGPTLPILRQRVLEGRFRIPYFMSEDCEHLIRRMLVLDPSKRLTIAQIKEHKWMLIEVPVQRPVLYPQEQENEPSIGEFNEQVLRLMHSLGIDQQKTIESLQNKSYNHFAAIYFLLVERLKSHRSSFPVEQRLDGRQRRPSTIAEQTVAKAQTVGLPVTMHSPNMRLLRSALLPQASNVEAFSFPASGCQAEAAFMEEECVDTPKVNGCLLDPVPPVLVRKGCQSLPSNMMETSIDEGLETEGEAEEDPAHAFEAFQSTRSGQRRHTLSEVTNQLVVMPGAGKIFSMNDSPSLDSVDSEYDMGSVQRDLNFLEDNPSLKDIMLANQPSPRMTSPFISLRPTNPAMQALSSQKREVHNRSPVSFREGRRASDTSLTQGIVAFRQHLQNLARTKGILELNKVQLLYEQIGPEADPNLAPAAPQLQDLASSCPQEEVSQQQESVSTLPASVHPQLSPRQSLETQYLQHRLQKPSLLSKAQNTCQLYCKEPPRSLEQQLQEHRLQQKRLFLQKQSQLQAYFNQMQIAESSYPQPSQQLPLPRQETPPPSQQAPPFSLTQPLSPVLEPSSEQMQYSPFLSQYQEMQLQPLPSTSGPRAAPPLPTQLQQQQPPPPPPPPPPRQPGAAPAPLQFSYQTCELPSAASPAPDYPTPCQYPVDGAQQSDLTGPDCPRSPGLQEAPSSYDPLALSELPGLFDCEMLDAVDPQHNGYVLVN

| pIC50 (SIK3) | pIC50 (SIK1) | pIC50 (SIK2) | SMILES |
| --- | --- | --- | --- |
| 7.00 to 8.00 | < 6.30 | < 6.30 | COc1cc(-c2cnc3cc(C4(C(=O)N5CC(O)C5)CC4)ccn23)cc(OC(F)F)c1C(=O)NC1CC1 [Cpd 144, N-cyclopropyl-2-(difluoromethoxy)-4-[7-[1-(3-hydroxyazetidine-1-carbonyl)cyclopropyl]imidazo[1,2-a]pyridin-3-yl]-6-methoxy-benzamide] |
| 6.30 to 7.00 | < 6.30 | < 6.30 | COc1cc(-c2cnc3cc(C4(CN5CCOCC5)CC4)ccn23)cc(OC(F)F)c1C(=O)NC1CC1 [Cpd 145, N-cyclopropyl-2-(difluoromethoxy)-6-methoxy-4-[7-[1-(morpholinomethyl)cyclopropyl]imidazo[1,2-a]pyridin-3-yl]benzamide] |
| 7.00 to 8.00 | < 6.30 | < 6.30 | COc1cc(-c2cnc3cc(C4(C(=O)NCCO)CC4)ccn23)cc(OC(F)F)c1C(=O)NC1CC1 [Cpd 147, N-cyclopropyl-2-(difluoromethoxy)-4-[7-[1-(2-hydroxyethylcarbamoyl)cyclopropyl]imidazo[1,2-a]pyridin-3-yl]-6-methoxy-benzamide] |
| 7.00 to 8.00 | < 6.30 | < 6.30 | CCN(CC)C(C)c1ccn2c(-c3cc(OC)c(C(=O)NC4CC4)c(OC(F)F)c3)cnc2c1 (stereo not drawn) [Cpd 148, N-cyclopropyl-4-[7-[1-(diethylamino)ethyl]imidazo[1,2-a]pyridin-3-yl]-2-(difluoromethoxy)-6-methoxy-benzamide] |
| 7.00 to 8.00 | < 6.30 | < 6.30 | COc1cc(-c2cnc3cc(C(C)NC(C)C)ccn23)cc(OC(F)F)c1C(=O)NC1CC1 (stereo not drawn) [Cpd 149, N-cyclopropyl-2-(difluoromethoxy)-4-[7-[1-(isopropylamino)ethyl]imidazo[1,2-a]pyridin-3-yl]-6-methoxy-benzamide] |
| 6.30 to 7.00 | < 6.30 | < 6.30 | COc1cc(-c2cnc3cc(C4(CNC(C)C)CC4)ccn23)cc(OC(F)F)c1C(=O)NC1CC1 [Cpd 151, N-cyclopropyl-2-(difluoromethoxy)-4-[7-[1-[(isopropylamino)methyl]cyclopropyl]imidazo[1,2-a]pyridin-3-yl]-6-methoxy-benzamide] |
| 7.00 to 8.00 | < 6.30 | < 6.30 | COc1cc(-c2cnc3cc(C(C)N4CC5(COC5)C4)ccn23)cc(OC(F)F)c1C(=O)NC1CC1 (stereo not drawn) [Cpd 152, N-cyclopropyl-2-(difluoromethoxy)-6-methoxy-4-[7-[1-(2-oxa-6-azaspiro[3.3]heptan-6-yl)ethyl]imidazo[1,2-a]pyridin-3-yl]benzamide] |
| 7.00 to 8.00 | < 6.30 | < 6.30 | COc1cc(-c2cnc3cc(C(C)N4CCCC4)ccn23)cc(OC(F)F)c1C(=O)NC1CC1 (stereo not drawn) [Cpd 153, N-cyclopropyl-2-(difluoromethoxy)-6-methoxy-4-[7-(1-pyrrolidin-1-ylethyl)imidazo[1,2-a]pyridin-3-yl]benzamide] |
| 7.00 to 8.00 | < 6.30 | < 6.30 | COc1cc(-c2cnc3cc(C(C)N(C)CCO)ccn23)cc(OC(F)F)c1C(=O)NC1CC1 (stereo not drawn) [Cpd 154, N-cyclopropyl-2-(difluoromethoxy)-4-[7-[1-[2-hydroxyethyl(methyl)amino]ethyl]imidazo[1,2-a]pyridin-3-yl]-6-methoxy-benzamide] |
| 7.00 to 8.00 | < 6.30 | < 6.30 | COc1cc(-c2cnc3cc(C(C)N4CC(O)C4)ccn23)cc(OC(F)F)c1C(=O)NC1CC1 (stereo not drawn) [Cpd 155, N-cyclopropyl-2-(difluoromethoxy)-4-[7-[1-(3-hydroxyazetidin-1-yl)ethyl]imidazo[1,2-a]pyridin-3-yl]-6-methoxy-benzamide] |
| 7.00 to 8.00 | < 6.30 | < 6.30 | COc1cc(-c2cnc3cc(C(C)N4CC(F)(F)C4)ccn23)cc(OC(F)F)c1C(=O)NC1CC1 (stereo not drawn) [Cpd 156, N-cyclopropyl-4-[7-[1-(3,3-difluoroazetidin-1-yl)ethyl]imidazo[1,2-a]pyridin-3-yl]-2-(difluoromethoxy)-6-methoxy-benzamide] |
| 7.00 to 8.00 | < 6.30 | < 6.30 | COc1cc(-c2cnc3cc(C(C)N4CCO[C@H](CO)C4)ccn23)cc(OC(F)F)c1C(=O)NC1CC1 (stereo partly drawn) [Cpd 157, N-cyclopropyl-2-(difluoromethoxy)-4-[7-[1-[(2S)-2-(hydroxymethyl)morpholin-4-yl]ethyl]imidazo[1,2-a]pyridin-3-yl]-6-methoxy-benzamide] |
| 7.00 to 8.00 | 6.30 to 7.00 | 6.30 to 7.00 | COc1cc(-c2cnc3cc(C4CN(C(=O)OC(C)(C)C)C4)c(F)cn23)cc(OC(F)F)c1C(=O)NC1CC1 [Cpd 158, tert-butyl 3-[3-[4-(cyclopropylcarbamoyl)-3-(difluoromethoxy)-5-methoxy-phenyl]-6-fluoro-imidazo[1,2-a]pyridin-7-yl]azetidine-1-carboxylate] |
| 8.00 to 11.00 | 7.00 to 8.00 | 7.00 to 8.00 | COc1cc(-c2cnc3cc(C4CCC4)ccn23)cc(OC(F)F)c1C(=O)NC1CC1 [Cpd 159, 4-(7-cyclobutylimidazo[1,2-a]pyridin-3-yl)-N-cyclopropyl-2-(difluoromethoxy)-6-methoxy-benzamide] |
| 7.00 to 8.00 | < 6.30 | < 6.30 | COc1cc(-c2cnc3cc(C(C)(C)CN4CCCC4)ccn23)cc(OC(F)F)c1C(=O)NC1CC1 [Cpd 161, N-cyclopropyl-2-(difluoromethoxy)-4-[7-(1,1-dimethyl-2-pyrrolidin-1-yl-ethyl)imidazo[1,2-a]pyridin-3-yl]-6-methoxy-benzamide] |
| 7.00 to 8.00 | 6.30 to 7.00 | 6.30 to 7.00 | COc1cc(-c2cnc3cc(C4CCCN4C(=O)OC(C)(C)C)ccn23)cc(OC(F)F)c1C(=O)NC1CC1 (stereo not drawn) [Cpd 180, tert-butyl 2-[3-[4-(cyclopropylcarbamoyl)-3-(difluoromethoxy)-5-methoxy-phenyl]imidazo[1,2-a]pyridin-7-yl]pyrrolidine-1-carboxylate] |
| < 6.30 | < 6.30 | < 6.30 | COC(=O)C(C)(C#N)c1ccn2c(-c3cc(OC)c(C(=O)NC4CC4)c(OC(F)F)c3)cnc2c1 (stereo not drawn) [Cpd 184, methyl 2-cyano-2-[3-[4-(cyclopropylcarbamoyl)-3-(difluoromethoxy)-5-methoxy-phenyl]imidazo[1,2-a]pyridin-7-yl]propanoate] |
| < 6.30 | < 6.30 | < 6.30 | COc1cc(-c2cnc3cc(C4COCCN4C(=O)OC(C)(C)C)ccn23)cc(OC(F)F)c1C(=O)NC1CC1 (stereo not drawn) [Cpd 186, tert-butyl 3-[3-[4-(cyclopropylcarbamoyl)-3-(difluoromethoxy)-5-methoxy-phenyl]imidazo[1,2-a]pyridin-7-yl]morpholine-4-carboxylate] |
| 7.00 to 8.00 | < 6.30 | < 6.30 | COc1cc(-c2cnc3cc(C4COCCN4)ccn23)cc(OC(F)F)c1C(=O)NC1CC1 (stereo not drawn) [Cpd 187, N-cyclopropyl-2-(difluoromethoxy)-6-methoxy-4-(7-morpholin-3-ylimidazo[1,2-a]pyridin-3-yl)benzamide] |
| 6.30 to 7.00 | < 6.30 | < 6.30 | COc1cc(-c2cnc3cc(C(C)(O)Cn4cncn4)ccn23)cc(OC(F)F)c1C(=O)NC1CC1 (stereo not drawn) [Cpd 194, N-cyclopropyl-2-(difluoromethoxy)-4-[7-[1-hydroxy-1-methyl-2-(1,2,4-triazol-1-yl)ethyl]imidazo[1,2-a]pyridin-3-yl]-6-methoxy-benzamide] |
| 7.00 to 8.00 | 6.30 to 7.00 | 7.00 to 8.00 | COCCN1CCCC1c1ccn2c(-c3cc(OC)c(C(=O)NC4CC4)c(OC(F)F)c3)cnc2c1 (stereo not drawn) [Cpd 196, N-cyclopropyl-2-(difluoromethoxy)-6-methoxy-4-[7-[1-(2-methoxyethyl)pyrrolidin-2-yl]imidazo[1,2-a]pyridin-3-yl]benzamide] |
| 7.00 to 8.00 | 6.30 to 7.00 | 7.00 to 8.00 | COc1cc(-c2cnc3cc(C4CCCN4C(C)C)ccn23)cc(OC(F)F)c1C(=O)NC1CC1 (stereo not drawn) [Cpd 197, N-cyclopropyl-2-(difluoromethoxy)-4-[7-(1-isopropylpyrrolidin-2-yl)imidazo[1,2-a]pyridin-3-yl]-6-methoxy-benzamide] |
| 7.00 to 8.00 | < 6.30 | < 6.30 | COc1cc(-c2cnc3cc(C4CCCN4C(C)=O)ccn23)cc(OC(F)F)c1C(=O)NC1CC1 (stereo not drawn) [Cpd 198, 4-[7-(1-acetylpyrrolidin-2-yl)imidazo[1,2-a]pyridin-3-yl]-N-cyclopropyl-2-(difluoromethoxy)-6-methoxy-benzamide] |
| 7.00 to 8.00 | < 6.30 | < 6.30 | COc1cc(-c2cnc3cc(C(O)C4CCC4)ccn23)cc(OC(F)F)c1C(=O)NC1CC1 (stereo not drawn) [Cpd 199, 4-[7-[cyclobutyl(hydroxy)methyl]imidazo[1,2-a]pyridin-3-yl]-N-cyclopropyl-2-(difluoromethoxy)-6-methoxy-benzamide] |
| 7.00 to 8.00 | < 6.30 | < 6.30 | CCC(O)C(C)(C)c1ccn2c(-c3cc(OC)c(C(=O)NC4CC4)c(OC(F)F)c3)cnc2c1 (stereo not drawn) [Cpd 201, N-cyclopropyl-2-(difluoromethoxy)-4-[7-(2-hydroxy-1,1-dimethyl-butyl)imidazo[1,2-a]pyridin-3-yl]-6-methoxy-benzamide] |
| 7.00 to 8.00 | < 6.30 | < 6.30 | COc1cc(-c2cnc3cc(C(C)(C)C(O)C(C)C)ccn23)cc(OC(F)F)c1C(=O)NC1CC1 (stereo not drawn) [Cpd 202, N-cyclopropyl-2-(difluoromethoxy)-4-[7-(2-hydroxy-1,1,3-trimethyl-butyl)imidazo[1,2-a]pyridin-3-yl]-6-methoxy-benzamide] |
| 7.00 to 8.00 | < 6.30 | 6.30 to 7.00 | COc1cc(-c2cnc3cc(C4CCN4)ccn23)cc(OC(F)F)c1C(=O)NC1CC1 (stereo not drawn) [Cpd 203, 4-[7-(azetidin-2-yl)imidazo[1,2-a]pyridin-3-yl]-N-cyclopropyl-2-(difluoromethoxy)-6-methoxy-benzamide] |
